Active and inactive are the calls of the source. The rule behind the calls is not given here.
Legend:
Jurkat [1] = test: Antitumour activity against human Jurkat cells xenografted in SCID/NOD mouse assessed as reduction of inactivity and messy hair at 40 mg/kg, po administered once a day for 3 weeks; assay type: functional, organism-based; conditions: dose 40.0 mg/kg/day
Jurkat [2] = test: Antitumour activity against human Jurkat cells xenografted in SCID/NOD mouse assessed as increase in body weight at 40 mg/kg, po administered once a day for 3 weeks; assay type: functional, organism-based; conditions: dose 40.0 mg/kg/day
Jurkat [3] = test: Antitumour activity against human Jurkat cells xenografted in SCID/NOD mouse assessed as proportion of CD3-positive cells in peripheral blood at 40 mg/kg, po administered once a day for 3 weeks by immunophenotyping based flow cytometry method (reference value: 18.81%); assay type: functional; conditions: dose 40 mg/kg/day
Jurkat [4] = test: Antitumour activity against human Jurkat cells xenografted in SCID/NOD mouse assessed as proportion of CD45-positive cells in peripheral blood at 40 mg/kg, po administered once a day for 3 weeks by immunophenotyping based flow cytometry method (reference value: 4.88%); assay type: functional; conditions: dose 40 mg/kg/day
Jurkat [5] = test: Antitumour activity against human Jurkat cells xenografted in SCID/NOD mouse assessed as decrease in expression of CD3 in bone marrow at 40 mg/kg, po administered once a day for 3 weeks by immunohistochemical staining method; assay type: functional, organism-based; conditions: dose 40.0 mg/kg/day
Mus musculus [6] = test: Antitumour activity against human Jurkat cells xenografted in SCID/NOD mouse assessed as decrease in expression of CD45 in bone marrow at 40 mg/kg, po administered once a day for 3 weeks by immunohistochemical staining method; assay type: functional, organism-based; conditions: dose 40.0 mg/kg/day
Mus musculus [7] = test: Inhibition of spleen infiltration in SCID/NOD mouse xenografted with human Jurkat cells assessed as reduction in spleen enlargement at 40 mg/kg, po administered once a day for 3 weeks; assay type: functional, organism-based; conditions: dose 40.0 mg/kg/day
Mus musculus [8] = test: Inhibition of spleen infiltration in SCID/NOD mouse xenografted with human Jurkat cells assessed as reduction in spleen index at 40 mg/kg, po administered once a day for 3 weeks; assay type: functional, organism-based; conditions: dose 40.0 mg/kg/day
Mus musculus [9] = test: Inhibition of spleen infiltration in SCID/NOD mouse xenografted with human Jurkat cells assessed as decrease in CD3 expression in spleen at 40 mg/kg, po once a day for 3 weeks by immunohistochemical staining method; assay type: functional, organism-based; conditions: dose 40.0 mg/kg/day
Mus musculus [10] = test: Inhibition of spleen infiltration in SCID/NOD mouse xenografted with human Jurkat cells assessed as decrease in CD45 expression in spleen at 40 mg/kg, po once a day for 3 weeks by immunohistochemical staining method; assay type: functional, organism-based; conditions: dose 40.0 mg/kg/day
Mus musculus [11] = test: In vivo inhibition of PI3K phosphorylation at Ser249 residue in spleen of SCID/NOD mouse xenografted with human Jurkat cells at 40 mg/kg, po administered once a day for 3 weeks by Western blot method; assay type: functional, organism-based; conditions: dose 40.0 mg/kg/day
Mus musculus [12] = test: In vivo inhibition of Akt phosphorylation at Ser473 residue in spleen of SCID/NOD mouse xenografted with human Jurkat cells at 40 mg/kg, po administered once a day for 3 weeks by Western blot method; assay type: functional, organism-based; conditions: dose 40.0 mg/kg/day
Mus musculus [13] = test: In vivo inhibition of mTOR phosphorylation at Ser2448 residue in spleen of SCID/NOD mouse xenografted with human Jurkat cells at 40 mg/kg, po administered once a day for 3 weeks by Western blot method; assay type: functional, organism-based; conditions: dose 40.0 mg/kg/day
Mus musculus [14] = test: Induction of immune response in SCID/NOD mouse xenografted with human Jurkat cells assessed as increase in IL-2 level in spleen at 40 mg/kg, po administered once a day for 3 weeks by ELISA reader method; assay type: functional, organism-based; conditions: dose 40.0 mg/kg/day
Mus musculus [15] = test: Induction of immune response in SCID/NOD mouse xenografted with human Jurkat cells assessed as increase in IFN-gamma level in spleen at 40 mg/kg, po administered once a day for 3 weeks by ELISA reader method; assay type: functional, organism-based; conditions: dose 40.0 mg/kg/day
Mus musculus [16] = test: Induction of immune response in SCID/NOD mouse xenografted with human Jurkat cells assessed as increase in NK cells in spleen at 40 mg/kg, po administered once a day for 3 weeks by ELISA reader method; assay type: functional, organism-based; conditions: dose 40.0 mg/kg/day
Mus musculus [17] = test: Induction of immune response in SCID/NOD mouse xenografted with human Jurkat cells assessed as decrease in IL-4 level in spleen at 40 mg/kg, po administered once a day for 3 weeks by ELISA reader method; assay type: functional, organism-based; conditions: dose 40.0 mg/kg/day
Mus musculus [18] = test: Induction of immune response in SCID/NOD mouse xenografted with human Jurkat cells assessed as decrease in IL-6 level in spleen at 40 mg/kg, po administered once a day for 3 weeks by ELISA reader method; assay type: functional, organism-based; conditions: dose 40.0 mg/kg/day
Mus musculus [19] = test: Induction of immune response in SCID/NOD mouse xenografted with human Jurkat cells assessed as decrease in IL-10 level in spleen at 40 mg/kg, po administered once a day for 3 weeks by ELISA reader method; assay type: functional, organism-based; conditions: dose 40.0 mg/kg/day
Mus musculus [20] = test: Induction of intestinal homeostasis in SCID/NOD mouse xenografted with human Jurkat cells assessed as decrease of enlargement of epithelial cells and infiltration of inflammatory cells in the colon at 40 mg/kg, po administered once a day for 3 weeks by Hand E staining based microscopic analysis; assay type: functional, organism-based; conditions: dose 40.0 mg/kg/day
Mus musculus [21] = test: Induction of intestinal homeostasis in SCID/NOD mouse xenografted with human Jurkat cells assessed as increase in goblet cells in the glands at 40 mg/kg, po administered once a day for 3 weeks by Hand E staining based microscopic analysis; assay type: functional, organism-based; conditions: dose 40.0 mg/kg/day
Mus musculus [22] = test: Induction of intestinal homeostasis in SCID/NOD mouse xenografted with human Jurkat cells assessed as upregulation of ZO-1 mRNA levels in colon at 40 mg/kg, po administered once a day for 3 weeks by real time RT-PCR analysis; assay type: functional, organism-based; conditions: dose 40.0 mg/kg/day
Mus musculus [23] = test: Induction of intestinal homeostasis in SCID/NOD mouse xenografted with human Jurkat cells assessed as upregulation of occludin mRNA levels in colon at 40 mg/kg, po administered once a day for 3 weeks by real time RT-PCR analysis; assay type: functional, organism-based; conditions: dose 40.0 mg/kg/day
Mus musculus [24] = test: Induction of intestinal homeostasis in SCID/NOD mouse xenografted with human Jurkat cells assessed as upregulation of claudin-1 mRNA levels in colon at 40 mg/kg, po administered once a day for 3 weeks by real time RT-PCR analysis; assay type: functional, organism-based; conditions: dose 40.0 mg/kg/day

CC(C)=CCC[C@](C)(O)[C@H]1CC[C@]2(C)[C@@H]1[C@H](O)C[C@@H]1[C@@]3(C)CC[C@H](O[C@@H]4O[C@H](CO)[C@@H](O)[C@H](O)[C@H]4O)C(C)(C)[C@@H]3CC[C@]12C [GINSENOSIDE RH2]
Activity (Jurkat [1]): Active | Activity (Jurkat [2]): Active | Activity (Jurkat [3]): 5.78% | Activity (Jurkat [4]): 1.28% | Activity (Jurkat [5]): Active | Activity (Mus musculus [6]): Active | inhibition (Mus musculus [7]): Active | inhibition (Mus musculus [8]): Active | inhibition (Mus musculus [9]): Active | inhibition (Mus musculus [10]): Active | inhibition (Mus musculus [11]): Active | inhibition (Mus musculus [12]): Active | inhibition (Mus musculus [13]): Active | Activity (Mus musculus [14]): Active | Activity (Mus musculus [15]): Active | Activity (Mus musculus [16]): Active | Activity (Mus musculus [17]): Active | Activity (Mus musculus [18]): Active | Activity (Mus musculus [19]): Active | Activity (Mus musculus [20]): Active | Activity (Mus musculus [21]): Active | Activity (Mus musculus [22]): Active | Activity (Mus musculus [23]): Active | Activity (Mus musculus [24]): Active
